The target in this experiment is GLP-1R (Homo sapiens, UniProt P43220). As to the kind of experiment: In vitro activity assay (cAMP HTRF, HEK293-CRE-luc-GLP-1R cells). It counts as cell-based. Also noted: expressed in transfected cells; host or cells: HEK293 (HEK293-CRE-luc-GLP-1R). To be noted: cAMP HTRF 665 nm/620 nm, 1 h incubation. The method, then:
HEK293-CRE-luc-GLP-1R cells were seeded into a 384-well cell culture plate (Greiner #781946) at a certain cell density (5 µL/well). 5 µl/well of 2× working solution was added to the 384-well microplate. The microplate was sealed with parafilm and incubated in a 37°C 5% CO2 incubator (Thermo) for 1 h. Subsequently, the detection was performed using the cAMP-GS HIRANGE KIT (PerkinElmer, 62AM6PEB), and detection reagents were prepared according to the kit instruction manual. After the incubation, the detection reagents were added to the 384-well microplate, and the microplate was incubated for 1 h at room temperature in the dark. HTRF signals at 665 nm and 620 nm were then measured using a multimode microplate reader. Data were exported from the microplate reader in Excel format. GraphPad Prism was opened. The logarithm of the sample concentration was calculated. Using the logarithm of concentration as the x-axis and the 665 nm/620 nm ratio as the y-axis, four-parameter logistic fitting was performed to obtain the EC50 value of the curve. Table 1: EC50 of compounds against GLP-1

The text below walks through data of patent publication EP4810500A1, “IMIDAZOL-2-ONE DERIVATIVE AND USE THEREOF IN MEDICINE” (Haisco Pharmaceutical Group Co., Ltd., priority 2023, dated 2025).

The pEC50 is the EC50 on a negative log10 scale, so that one unit is a factor of ten.

Molecules are shown by their SMILES. pEC50: −log10 of the molar value.

Sequence of GLP-1R (P43220 24-463): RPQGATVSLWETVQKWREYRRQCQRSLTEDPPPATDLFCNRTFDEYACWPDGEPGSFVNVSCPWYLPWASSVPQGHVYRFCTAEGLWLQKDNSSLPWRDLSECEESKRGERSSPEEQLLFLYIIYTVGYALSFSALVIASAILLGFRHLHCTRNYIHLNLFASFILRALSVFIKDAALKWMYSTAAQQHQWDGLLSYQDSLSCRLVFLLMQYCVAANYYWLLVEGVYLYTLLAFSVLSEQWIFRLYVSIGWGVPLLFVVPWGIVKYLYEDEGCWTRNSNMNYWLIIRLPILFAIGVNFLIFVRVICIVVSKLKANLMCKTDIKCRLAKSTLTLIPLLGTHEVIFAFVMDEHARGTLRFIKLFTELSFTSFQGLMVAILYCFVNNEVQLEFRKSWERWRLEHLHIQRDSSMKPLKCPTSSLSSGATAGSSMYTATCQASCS

Take `Cc1cc(-n2nc3c(c2-n2ccn(-c4ccc5c(c4)N(C)C(=O)C54CCCC4)c2=O)[C@H](C)N(C(=O)c2cc4cc([C@H]5CCOC(C)(C)C5)ccc4n2[C@@]2(c4noc(=O)[nH]4)C[C@@H]2C)CC3)cc(C)c1F` [Compound 5]: the pEC50 was above 9.00. To `Cc1cc(-n2nc3c(c2-n2ccn(-c4ccc5c(c4F)N(C)C(=O)C54CCOCC4)c2=O)[C@H](C)N(C(=O)c2cc4cc([C@H]5CCOC(C)(C)C5)ccc4n2[C@@]2(c4noc(=O)[nH]4)C[C@@H]2C)CC3)cc(C)c1F` [Compound 7] belongs above 9.00; to `[2H]C([2H])([2H])N1C(=O)C2(CCOCC2)c2ccc(-n3ccn(-c4c5c(nn4-c4cc(C)c(F)c(C)c4)CCN(C(=O)c4cc6cc([C@H]7CCOC(C)(C)C7)ccc6n4[C@@]4(c6noc(=O)[nH]6)C[C@@H]4C)[C@H]5C)c3=O)c(F)c21` [Compound 8], above 9.00; to `Cc1cc(-n2nc3c(c2-n2ccn(-c4ccc5c(c4)N(C)C(=O)C54CCN(C(=O)C5CC5)CC4)c2=O)[C@H](C)N(C(=O)c2cc4cc([C@H]5CCOC(C)(C)C5)ccc4n2[C@@]2(c4noc(=O)[nH]4)C[C@@H]2C)CC3)cc(C)c1F` [Compound 12], above 9.00. The figure for `Cc1cc(-n2nc3c(c2-n2ccn(-c4ccc5c(c4)N(C)C(=O)C54CCN(C(=O)[C@@H]5C[C@H]5F)CC4)c2=O)[C@H](C)N(C(=O)c2cc4cc([C@H]5CCOC(C)(C)C5)ccc4n2[C@@]2(c4noc(=O)[nH]4)C[C@@H]2C)CC3)cc(C)c1F` [Compound 13] is above 9.00; for `Cc1cc(-n2nc3c(c2-n2ccn(-c4ccc5c(c4)N(C)C(=O)C54CCN(C(=O)N[C@@H]5C[C@@H]5F)CC4)c2=O)[C@H](C)N(C(=O)c2cc4cc([C@H]5CCOC(C)(C)C5)ccc4n2[C@@]2(c4noc(=O)[nH]4)C[C@@H]2C)CC3)cc(C)c1F` [Compound 17] it is above 9.00. To `Cc1cc(-n2nc3c(c2-n2ccn(-c4ccc5c(c4)N(C)C(=O)C54CCN(C(=O)C5COC5)CC4)c2=O)[C@H](C)N(C(=O)c2cc4cc([C@H]5CCOC(C)(C)C5)ccc4n2[C@@]2(c4noc(=O)[nH]4)C[C@@H]2C)CC3)cc(C)c1F` [Compound 18] belongs above 9.00; to `Cc1cc(-n2nc3c(c2-n2ccn(-c4ccc5c(c4)N(C)C(=O)C54CCN(S(=O)(=O)C5CC5)CC4)c2=O)[C@H](C)N(C(=O)c2cc4cc([C@H]5CCOC(C)(C)C5)ccc4n2[C@@]2(c4noc(=O)[nH]4)C[C@@H]2C)CC3)cc(C)c1F` [Compound 20], above 9.00. For `Cc1cc(-n2nc3c(c2-n2ccn(-c4ccc5c(c4)N(C)C(=O)C54CCN(C(=O)C5C6COCC65)CC4)c2=O)[C@H](C)N(C(=O)c2cc4cc([C@H]5CCOC(C)(C)C5)ccc4n2[C@@]2(c4noc(=O)[nH]4)C[C@@H]2C)CC3)cc(C)c1F` (stereo partly drawn) [Compound 22], the pEC50 is above 9.00. To `Cc1cc(-n2nc3c(c2-n2ccn(-c4ccc5c(c4)N(C)C(=O)C54CCN(C(=O)C5(c6ccccn6)CC5)CC4)c2=O)[C@H](C)N(C(=O)c2cc4cc([C@H]5CCOC(C)(C)C5)ccc4n2[C@@]2(c4noc(=O)[nH]4)C[C@@H]2C)CC3)cc(C)c1F` [Compound 23] belongs above 9.00; to `Cc1cc(-n2nc3c(c2-n2ccn(-c4ccc5c(c4)N(C)C(=O)C54CCN(C(=O)c5cnn(C6CC6)c5)CC4)c2=O)[C@H](C)N(C(=O)c2cc4cc([C@H]5CCOC(C)(C)C5)ccc4n2[C@@]2(c4noc(=O)[nH]4)C[C@@H]2C)CC3)cc(C)c1F` [Compound 25], above 9.00; to `Cc1cc(-n2nc3c(c2-n2ccn(-c4ccc5c(c4)N(C)C(=O)C54CCN(C(=O)C56CC(F)(C5)C6)CC4)c2=O)[C@H](C)N(C(=O)c2cc4cc([C@H]5CCOC(C)(C)C5)ccc4n2[C@@]2(c4noc(=O)[nH]4)C[C@@H]2C)CC3)cc(C)c1F` [Compound 26], above 9.00.

In the case of `Cc1cc(-n2nc3c(c2-n2ccn(-c4ccc5c(c4)N(C)C(=O)C54CCN(C(=O)C5CCN(C(=O)C6CC6)CC5)CC4)c2=O)[C@H](C)N(C(=O)c2cc4cc([C@H]5CCOC(C)(C)C5)ccc4n2[C@@]2(c4noc(=O)[nH]4)C[C@@H]2C)CC3)cc(C)c1F` [Compound 29], the pEC50 is above 9.00. For the compound `Cc1cc(-n2nc3c(c2-n2ccn(-c4ccc5c(c4)N(C)C(=O)C54CCN(C(=O)c5cnn(C(F)F)c5)CC4)c2=O)[C@H](C)N(C(=O)c2cc4cc([C@H]5CCOC(C)(C)C5)ccc4n2[C@@]2(c4noc(=O)[nH]4)C[C@@H]2C)CC3)cc(C)c1F` [Compound 30], the negative-log EC50 (pEC50) is above 9.00. The figure for `Cc1cc(-n2nc3c(c2-n2ccn(-c4ccc5c(c4)N(C)C(=O)C54CCN(C(=O)c5cnn(CC6CC6)c5)CC4)c2=O)[C@H](C)N(C(=O)c2cc4cc([C@H]5CCOC(C)(C)C5)ccc4n2[C@@]2(c4noc(=O)[nH]4)C[C@@H]2C)CC3)cc(C)c1F` [Compound 32] is above 9.00. The figure for `COP(=O)(OC)N1CCC2(CC1)C(=O)N(C)c1cc(-n3ccn(-c4c5c(nn4-c4cc(C)c(F)c(C)c4)CCN(C(=O)c4cc6cc([C@H]7CCOC(C)(C)C7)ccc6n4[C@@]4(c6noc(=O)[nH]6)C[C@@H]4C)[C@H]5C)c3=O)ccc12` [Compound 33] is above 9.00. Regarding `Cc1cc(-n2nc3c(c2-n2ccn(-c4ccc5c(c4)N(C)C(=O)C54CCN(C(=O)C5(CF)CC5)CC4)c2=O)[C@H](C)N(C(=O)c2cc4cc([C@H]5CCOC(C)(C)C5)ccc4n2[C@@]2(c4noc(=O)[nH]4)C[C@@H]2C)CC3)cc(C)c1F` [Compound 35], the pEC50 was above 9.00.

`Cc1cc(-n2nc3c(c2-n2ccn(-c4ccc5c(c4)N(C)C(=O)C54CCN(C(=O)COCC5CC5(F)F)CC4)c2=O)[C@H](C)N(C(=O)c2cc4cc([C@H]5CCOC(C)(C)C5)ccc4n2[C@@]2(c4noc(=O)[nH]4)C[C@@H]2C)CC3)cc(C)c1F` (stereo partly drawn) [Compound 37]: the pEC50 is above 9.00. To `[2H]C([2H])([2H])N1C(=O)C2(CCN(S(=O)(=O)C3CC3)CC2)c2ccc(-n3ccn(-c4c5c(nn4-c4cc(C)c(F)c(C)c4)CCN(C(=O)c4cc6cc([C@H]7CCOC(C)(C)C7)ccc6n4[C@@]4(c6noc(=O)[nH]6)C[C@@H]4C)[C@H]5C)c3=O)cc21` [Compound 38] belongs above 9.00; to `[2H]C([2H])([2H])N1C(=O)C2(CCN(C(=O)C3C4COCC43)CC2)c2ccc(-n3ccn(-c4c5c(nn4-c4cc(C)c(F)c(C)c4)CCN(C(=O)c4cc6cc([C@H]7CCOC(C)(C)C7)ccc6n4[C@@]4(c6noc(=O)[nH]6)C[C@@H]4C)[C@H]5C)c3=O)cc21` (stereo partly drawn) [Compound 39], above 9.00; to `[2H]C([2H])([2H])N1C(=O)C2(CCN(C(=O)C3CC3F)CC2)c2ccc(-n3ccn(-c4c5c(nn4-c4cc(C)c(F)c(C)c4)CCN(C(=O)c4cc6cc(C7CCOC(C)(C)C7)ccc6n4C4(c6noc(=O)[nH]6)CC4C)C5C)c3=O)cc21` (stereo not drawn) [Compound 40], above 9.00.

In turn, `C[C@H]1c2c(nn(-c3ccc(F)c(C4CC4)c3)c2-n2ccn(-c3ccc4c(c3F)N(C)C(=O)C43CCOCC3)c2=O)CCN1C(=O)c1cc2cc([C@H]3CCOC(C)(C)C3)ccc2n1[C@@]1(c2noc(=O)[nH]2)C[C@@H]1C` [Compound 42] gave a pEC50 above 9.00.

For `[2H]C([2H])([2H])N1C(=O)C2(CCOCC2)c2ccc(-n3ccn(-c4c5c(nn4-c4ccc(F)c(C6CC6)c4)CCN(C(=O)c4cc6cc([C@H]7CCOC(C)(C)C7)ccc6n4[C@@]4(c6noc(=O)[nH]6)C[C@@H]4C)[C@H]5C)c3=O)c(F)c21` [Compound 43], the pEC50 is above 9.00. In the case of `[2H]C([2H])([2H])N1C(=O)C2(CCOCC2)c2ccc(-n3ccn(-c4c5c(nn4-c4ccc(F)c(C6(F)CC6)c4)CCN(C(=O)c4cc6cc([C@H]7CCOC(C)(C)C7)ccc6n4[C@@]4(c6noc(=O)[nH]6)C[C@@H]4C)[C@H]5C)c3=O)cc21` [Compound 44], the pEC50 is above 9.00. The figure for `[2H]C([2H])([2H])N1C(=O)C2(CCOCC2)c2ccc(-n3ccn(-c4c5c(nn4-c4ccc(F)c(C6(F)CC6)c4)CCN(C(=O)c4cc6cc([C@H]7CCOC(C)(C)C7)ccc6n4[C@@]4(c6noc(=O)[nH]6)C[C@@H]4C)[C@H]5C)c3=O)c(F)c21` [Compound 45] is above 9.00. To `C[C@H]1c2c(nn(-c3ccc(F)c(C4(F)CC4)c3)c2-n2ccn(-c3ccc4c(c3F)N(C)C(=O)C43CCOCC3)c2=O)CCN1C(=O)c1cc2cc([C@H]3CCOC(C)(C)C3)ccc2n1[C@@]1(c2noc(=O)[nH]2)C[C@@H]1C` [Compound 46] belongs above 9.00.

In turn, `Cc1cc(-n2nc3c(c2-n2ccn(-c4ccc5c(c4)N(C)C(=O)C54CCOCC4)c2=O)[C@H](C)N(C(=O)c2cc4cc(C5CCOCC5)ccc4n2[C@@]2(c4noc(=O)[nH]4)C[C@@H]2C)CC3)cc(C)c1F` [Compound 47] showed a pEC50 above 9.00.

Consider `C[C@H]1c2c(nn(-c3ccc(F)c(C4(F)CC4)c3)c2-n2ccn(-c3ccc4c(c3F)N(C)C(=O)C43CCOCC3)c2=O)CCN1C(=O)c1cc2cc(C3CCOCC3)ccc2n1[C@@]1(c2noc(=O)[nH]2)C[C@@H]1C` [Compound 49], for which the pEC50 was above 9.00. The figure for `[2H]C([2H])([2H])N1C(=O)C2(CCOCC2)c2ccc(-n3ccn(-c4c5c(nn4-c4ccc(F)c(C6(F)CC6)c4)CCN(C(=O)c4cc6cc(C7CCOCC7)ccc6n4[C@@]4(c6noc(=O)[nH]6)C[C@@H]4C)[C@H]5C)c3=O)c(F)c21` [Compound 51] is above 9.00; for `C=C(F)c1cc(-n2nc3c(c2-n2ccn(-c4ccc5c(c4)N(C)C(=O)C54CCOCC4)c2=O)[C@H](C)N(C(=O)c2cc4cc([C@H]5CCOC(C)(C)C5)ccc4n2[C@@]2(c4noc(=O)[nH]4)C[C@@H]2C)CC3)ccc1F` [Compound 52] it is above 9.00.
